Reference: PMC7200709, “The mechanism of loop C-neonicotinoid interactions at insect nicotinic acetylcholine receptor α1 subunit predicts resistance emergence in pests” (Scientific Reports, 2020)
Where two headings read alike, the source gives them in different places.

What was measured:
(Dα1)2(β2)3 nAChR = target: T1, (Dα1)2(β2)3 nAChR (Drosophila melanogaster, UniProt P09478+P09484); test: two-electrode voltage clamp, Xenopus oocytes, agonist concentration-response; format: cell-based
T1 construct: gene nAChRalpha1; fruitfly Dα1 and chicken β2 cDNAs in pcDNA3.1(+), cRNA mixed 1:5 (Dα1:β2), Xenopus laevis oocytes; hybrid pentamer with Dα1/β2 interfaces
Text: two-electrode voltage clamp, Xenopus oocytes, agonist concentration-response on (Dα1)2(β2)3 nAChR

(Dα1)3(β2)2 nAChR = target: T2, (Dα1)3(β2)2 nAChR (Drosophila melanogaster, UniProt P09478+P09484); test: as above; format: cell-based
T2 construct: gene nAChRalpha1; fruitfly Dα1 and chicken β2 cDNAs in pcDNA3.1(+), cRNA mixed 5:1 (Dα1:β2), Xenopus laevis oocytes; hybrid pentamer with Dα1/Dα1 and Dα1/β2 interfaces
Text: two-electrode voltage clamp, Xenopus oocytes, agonist concentration-response on (Dα1)3(β2)2 nAChR

T2 sequence (P09478 22-567): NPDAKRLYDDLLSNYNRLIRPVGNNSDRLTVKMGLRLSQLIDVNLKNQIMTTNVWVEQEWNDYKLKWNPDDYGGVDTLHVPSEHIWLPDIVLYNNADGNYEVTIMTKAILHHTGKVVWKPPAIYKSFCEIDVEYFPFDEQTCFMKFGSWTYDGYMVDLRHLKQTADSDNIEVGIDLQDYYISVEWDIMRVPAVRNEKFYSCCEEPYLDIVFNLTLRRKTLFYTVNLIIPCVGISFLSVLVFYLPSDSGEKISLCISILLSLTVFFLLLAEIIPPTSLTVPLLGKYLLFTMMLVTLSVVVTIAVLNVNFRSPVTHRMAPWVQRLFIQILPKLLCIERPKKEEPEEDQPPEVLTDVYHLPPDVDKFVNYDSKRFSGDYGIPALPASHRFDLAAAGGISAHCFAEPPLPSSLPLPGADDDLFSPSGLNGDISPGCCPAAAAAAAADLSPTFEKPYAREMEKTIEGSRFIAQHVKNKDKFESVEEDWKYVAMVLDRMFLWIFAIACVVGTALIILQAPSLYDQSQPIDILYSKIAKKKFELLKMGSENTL
T2 sequence (P09484 19-491): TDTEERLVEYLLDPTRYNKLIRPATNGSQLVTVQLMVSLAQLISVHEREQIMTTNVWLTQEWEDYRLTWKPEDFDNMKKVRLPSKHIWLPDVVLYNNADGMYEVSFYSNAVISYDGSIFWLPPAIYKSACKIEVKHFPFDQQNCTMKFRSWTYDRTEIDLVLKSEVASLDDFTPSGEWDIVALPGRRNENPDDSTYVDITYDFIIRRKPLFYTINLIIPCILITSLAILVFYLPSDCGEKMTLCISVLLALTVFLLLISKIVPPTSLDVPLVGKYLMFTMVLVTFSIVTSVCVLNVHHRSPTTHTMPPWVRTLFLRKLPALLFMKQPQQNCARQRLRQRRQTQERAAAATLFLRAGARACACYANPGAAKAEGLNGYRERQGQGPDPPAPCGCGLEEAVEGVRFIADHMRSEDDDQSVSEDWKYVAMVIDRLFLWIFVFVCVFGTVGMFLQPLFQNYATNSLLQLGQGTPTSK
T1 sequence (P09478 22-567): as the sequence (P09478 22-567) above
T1 sequence (P09484 19-491): as the sequence (P09484 19-491) above

## CC(=O)OCC[N+](C)(C)C [ACh]
(Dα1)2(β2)3 nAChR; read-out: (Dα1)2(β2)3 / pEC50 (converted)
  EC50: 162 nM
(Dα1)3(β2)2 nAChR; read-out: (Dα1)3(β2)2 / pEC50 (converted)
  EC50: 155 nM

## N#C/N=C1\SCCN1Cc1ccc(Cl)nc1 [thiacloprid]
(Dα1)2(β2)3 nAChR; read-out: Thiacloprid / (Dα1)2(β2)3 / pEC50 (converted)
  EC50: 24.5 nM
(Dα1)3(β2)2 nAChR; read-out: Thiacloprid / (Dα1)3(β2)2 / pEC50 (converted)
  EC50: 45.7 nM

## O=[N+]([O-])NC1=NCCN1Cc1ccc(Cl)nc1 [imidacloprid]
(Dα1)2(β2)3 nAChR; read-out: Imidacloprid / (Dα1)2(β2)3 / pEC50 (converted)
  EC50: 112 nM
(Dα1)3(β2)2 nAChR; read-out: Imidacloprid / (Dα1)3(β2)2 / pEC50 (converted)
  EC50: 162 nM
